{"source": "paper PMC10682503", "about": "“Structural and functional basis of inositol hexaphosphate stimulation of NHEJ through stabilization of Ku-XLF interaction” (Nucleic Acids Research, 2023)", "key": {"[1]": {"target": "T1, KuFL (full-length human Ku70–Ku80 heterodimer) (Homo sapiens, UniProt P12956+P13010)", "T1 construct": "The full-length human Ku heterodimer subunits (Ku70 1–609, Ku80 1–732); 10x His-tag with TEV site (N); made in house; host or cells: Sf21 insect cells (baculovirus, MultiBac)", "experiment": "Isothermal titration calorimetry (ITC), KuFL with IP6 and IP6 analogues", "type": "binding", "details": "25 °C, Ku 4 µM in cell, IPs 40 µM in syringe", "method": "(§1) Purification of Ku full-length (KuFL) for cryo-EM experiments was carried out as described previously ([5]). Expression and purification of KuFL for biophysical experiments was carried out as described previously ([20]). The full-length human Ku heterodimer subunits (Ku70 1–609, Ku80 1–732) were cloned into a Multibac vector ([21]). The construct has a 10× His-tag and a TEV site on the N-terminus of Ku80 and no-tag on Ku70. Protein production was initiated in Sf21 cells by infection with the baculovirus stock at MOI of 5 × 10^−3 and cells were collected 5–6 days after the infection (3–4 days after the proliferation arrest). Cells were sonicated and the supernatant was incubated with Benzonase (300 units for 30 min at 4°C). The Ku heterodimer was purified on a NiNTA-Agarose affinity column (Protino, Macherey Nagel) with a 1 M NaCl wash step to remove DNA excess. The eluted Ku was then bound onto an anion exchange column (Resource Q, Cytiva) equilibrated in 20 mM Tris pH 8.0, 50 mM NaCl, 50 mM KCl, 10 mM β-mercaptoethanol and eluted with a salt gradient. The final yield was about 20 mg of purified heterodimer per litre of culture. KuΔC constructs, heterodimer deleted of its C-terminal region (Ku70 1–544, Ku80 1–551) for X-ray crystallography, Ku mutants, Ku-2E (Ku with mutation in K357E on Ku70 and K481E on Ku80) and Ku-4E (Ku with mutations in H359E and H360E on Ku70 and K413E and H414E on Ku80) were cloned in the same vector and produced following the same protocol as KuFL expressed in Sf21 insect cells.\nCalorimetry. Interactions between KuFL and inositol phosphates (IPs) (IP6 and IP6 analogues) were determined by Isothermal Titration Calorimetry (ITC) using a VP-ITC calorimeter (Malvern). Prior to measurements, all solutions were degassed under vacuum. The reaction cell of the ITC (volume 1.8 mL) was loaded with Ku heterodimers at 4 µM concentration. […] The free energy of binding (ΔG) and the entropy (ΔS) were determined using the classical thermodynamic formula, ΔG = - RT ln(Ka) and ΔG = ΔH - TΔS. […]"}, "[2]": {"target": "T2, Ku-2E (Ku70-K357E, Ku80-K481E) (Homo sapiens, UniProt P12956+P13010, K357E/K481E)", "T2 construct": "10x His-tag with TEV site (same vector as KuFL) (N); made in house; host or cells: Sf21 insect cells", "T2 sequence (P12956 whole entry K357E)": "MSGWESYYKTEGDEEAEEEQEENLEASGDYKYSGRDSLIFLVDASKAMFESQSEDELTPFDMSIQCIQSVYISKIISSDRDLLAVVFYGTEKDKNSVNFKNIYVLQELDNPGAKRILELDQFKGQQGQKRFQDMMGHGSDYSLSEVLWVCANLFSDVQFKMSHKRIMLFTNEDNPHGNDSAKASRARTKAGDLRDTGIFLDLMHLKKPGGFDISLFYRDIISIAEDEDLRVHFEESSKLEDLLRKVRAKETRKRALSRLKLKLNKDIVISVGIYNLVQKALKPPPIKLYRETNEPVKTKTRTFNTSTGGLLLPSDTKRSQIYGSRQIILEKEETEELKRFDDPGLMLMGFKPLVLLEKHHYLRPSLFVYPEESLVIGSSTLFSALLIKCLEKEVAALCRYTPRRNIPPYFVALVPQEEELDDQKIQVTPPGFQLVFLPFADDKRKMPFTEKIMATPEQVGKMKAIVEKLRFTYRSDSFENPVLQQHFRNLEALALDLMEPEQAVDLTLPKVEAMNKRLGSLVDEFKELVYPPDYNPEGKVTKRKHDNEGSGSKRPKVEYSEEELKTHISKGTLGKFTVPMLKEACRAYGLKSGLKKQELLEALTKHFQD", "T2 sequence (P13010 whole entry K481E)": "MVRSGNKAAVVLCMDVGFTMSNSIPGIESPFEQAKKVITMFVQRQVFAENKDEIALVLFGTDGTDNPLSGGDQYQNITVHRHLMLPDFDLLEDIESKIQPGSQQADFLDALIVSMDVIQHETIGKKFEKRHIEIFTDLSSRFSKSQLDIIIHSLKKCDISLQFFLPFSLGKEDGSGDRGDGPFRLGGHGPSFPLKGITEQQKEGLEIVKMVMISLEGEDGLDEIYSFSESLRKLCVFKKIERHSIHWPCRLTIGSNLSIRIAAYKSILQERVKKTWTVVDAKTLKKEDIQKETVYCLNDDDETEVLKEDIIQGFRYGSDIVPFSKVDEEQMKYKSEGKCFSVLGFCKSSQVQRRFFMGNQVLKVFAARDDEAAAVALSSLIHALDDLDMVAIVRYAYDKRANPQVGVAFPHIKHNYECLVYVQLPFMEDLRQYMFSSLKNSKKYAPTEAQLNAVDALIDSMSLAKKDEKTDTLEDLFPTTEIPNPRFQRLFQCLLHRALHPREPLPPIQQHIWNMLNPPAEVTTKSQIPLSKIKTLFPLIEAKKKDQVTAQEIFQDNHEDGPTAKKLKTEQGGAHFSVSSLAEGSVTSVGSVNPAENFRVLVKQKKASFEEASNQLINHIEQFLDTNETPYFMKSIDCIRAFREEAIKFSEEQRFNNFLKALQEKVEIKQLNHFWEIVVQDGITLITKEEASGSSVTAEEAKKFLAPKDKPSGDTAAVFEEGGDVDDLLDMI", "experiment": "ITC, Ku-2E mutant with IP6", "type": "binding", "method": "as §1, with “The final yield was about 20 mg of purified heterodimer per litre of culture. KuΔC constructs, heterodimer deleted of its C-terminal region (Ku70 1–544, Ku80 1–551) for X-ray crystallography, Ku mutants, Ku-2E (Ku with mutation in K357E on Ku70 and K481E on Ku80) and Ku-4E (Ku with mutations in H359E and H360E on Ku70 and K413E and H414E on Ku80) were cloned in the same vector and produced following the same protocol as KuFL expressed in Sf21 insect cells.” left out\n(§2) Calorimetry. Interactions between KuFL and inositol phosphates (IPs) (IP6 and IP6 analogues) were determined by Isothermal Titration Calorimetry (ITC) using a VP-ITC calorimeter (Malvern). […] The free energy of binding (ΔG) and the entropy (ΔS) were determined using the classical thermodynamic formula, ΔG = - RT ln(Ka) and ΔG = ΔH - TΔS. […]"}, "[3]": {"target": "T3, Ku-4E (Ku70 H359E-H360E/Ku80 K413E H414E) (Homo sapiens, UniProt P12956+P13010, H359E/H360E/H414E/K413E)", "T3 construct": "10x His-tag with TEV site (same vector as KuFL) (N); made in house; host or cells: Sf21 insect cells", "T3 sequence (P12956 whole entry H359E/H360E)": "as the sequence (P12956 whole entry K357E) above, with E357K, H359E, H360E counted along it", "T3 sequence (P13010 whole entry K413E/H414E)": "as the sequence (P13010 whole entry K481E) above, with K413E, H414E, E481K counted along it", "experiment": "ITC, Ku-4E mutant with IP6", "type": "binding", "method": "as §1, with “The final yield was about 20 mg of purified heterodimer per litre of culture. KuΔC constructs, heterodimer deleted of its C-terminal region (Ku70 1–544, Ku80 1–551) for X-ray crystallography, Ku mutants, Ku-2E (Ku with mutation in K357E on Ku70 and K481E on Ku80) and Ku-4E (Ku with mutations in H359E and H360E on Ku70 and K413E and H414E on Ku80) were cloned in the same vector and produced following the same protocol as KuFL expressed in Sf21 insect cells.” left out\nas §2"}, "KuFL": {"target": "T4, KuFL (Homo sapiens, UniProt P12956+P13010)", "T4 construct": "The full-length human Ku heterodimer subunits (Ku70 1–609, Ku80 1–732); 10x His-tag with TEV site (N); made in house; host or cells: Sf21 insect cells (baculovirus, MultiBac)", "T4 sequence (P12956 whole entry)": "as the sequence (P12956 whole entry K357E) above, with E357K counted along it", "T4 sequence (P13010 whole entry)": "as the sequence (P13010 whole entry K481E) above, with E481K counted along it", "experiment": "nanoDSF thermal stability of KuFL", "details": "in the absence of DNA, increasing IP6 concentrations", "method": "nano-Differential Scanning Fluorimetry. nanoDSF measurements were performed on a Tycho NT.6 device (NanoTemper) with KuFL dialyzed against buffer 20 mM Tris HCl pH 8, 150 mM NaCl, 5 mM β-mercaptoethanol. We used 9 µL of KuFL at 5 µM in absence or presence of DNA at 7.5 µM to obtain a (1:1.5) molar ratio. Measurements were performed in presence of IP6 concentrations ranging from 0 to 10 µM. Stocks solutions of IP6 and analogues are prepared so that 1 µL of IPs solutions are used in the 10 µL capillary for all concentrations tested. Each point corresponds to an average of three measurements. The temperature of transition that corresponds to the change of environment of the tryptophan is deduced from the first inflexion point of the 330 nm/350 nm ratio versus temperature."}, "Ku-XLF interaction": {"target": "T5, Ku-XLF interaction (Homo sapiens, UniProt P12956+P13010)", "T5 construct": "The full-length human Ku heterodimer subunits (Ku70 1–609, Ku80 1–732); 10x His-tag with TEV site (N); made in house; host or cells: Sf21 insect cells (Ku)", "T5 sequence (P12956 whole entry)": "as the sequence (P12956 whole entry K357E) above, with E357K counted along it", "T5 sequence (P13010 whole entry)": "as the sequence (P13010 whole entry K481E) above, with E481K counted along it", "T5 sequence (Q9H9Q4 whole entry partner)": "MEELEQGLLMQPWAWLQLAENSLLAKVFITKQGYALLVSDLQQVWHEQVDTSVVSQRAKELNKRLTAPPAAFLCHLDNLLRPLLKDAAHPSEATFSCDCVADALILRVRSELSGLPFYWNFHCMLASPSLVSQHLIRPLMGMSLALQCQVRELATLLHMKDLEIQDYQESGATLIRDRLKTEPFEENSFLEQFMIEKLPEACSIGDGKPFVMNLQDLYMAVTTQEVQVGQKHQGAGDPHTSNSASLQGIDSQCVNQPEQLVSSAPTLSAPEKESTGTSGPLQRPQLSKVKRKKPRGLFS", "experiment": "switchSENSE analysis of Ku-DNA interaction with XLF", "type": "binding", "details": "IP6 20 μM; for Kd: biphasic fit", "method": "switchSENSE: A DRX 2400 instrument and a multi-purpose 48bp chip were used for switchSENSE measurements (both Dynamic Biosensors GmbH; Planegg, Germany). The sample and running buffer was in 10 mM Tris HCl pH 7.4, 140 mM NaCl, 50 µM EDTA, 0.05 % Tween-20, 50µM EDTA. Kinetics experiments of Ku interaction with DNA in presence or absence of IP6 were performed on a DRX2 instrument. Complementary DNA to the strand immobilized on the chip was first hybridized on the measurement electrodes. The association and dissociation between Ku and DNA, with or without IP6 (3 µM) at Ku concentration (0-15-30-60-120-240 nM were measured in a flow rate of 200 µL/min. Kinetics experiments of Ku interaction with DNA and XLF with or without DNA were performed on a Helix instrument. The sample and running buffer was in 10 mM Tris HCl pH 7.4, 140 mM NaCl, 50 µM EDTA, 0.05 % Tween-20 with or without IP6 (20 µM). The flow rate of all conditions are at 500 µL/min.\nA complementary DNA is hybridized onto an anchor DNA on the measurement chip in order to obtain a 96 base paired DNA with nick. KuFL is then captured under saturation condition (SI figure 13a and 13c). Association and dissociation between XLF and Ku-DNA is then monitored using 1, 2 or 8 µM of XLF, with or without IP6 in working buffer (SI figure 13c and d) . The fit is realised using biphasic model from BDS software."}}, "note": "Like-named read-outs stand apart in the source and are kept apart here."}
{"smiles": "O=P(O)(O)O[C@H]1[C@H](OP(=O)(O)O)[C@@H](OP(=O)(O)O)[C@H](OP(=O)(O)O)[C@@H](OP(=O)(O)O)[C@H]1OP(=O)(O)O", "note": "[IP6, inositol hexaphosphate]", "values": [{"measurement": "Kd", "setting": "[1]", "result": "3.5 ± 2.9", "unit": "nM"}, {"measurement": "interaction with IP6 as measured by ITC", "setting": "[2]", "result": "no interaction"}, {"measurement": "interaction with IP6 as measured by ITC", "setting": "[3]", "result": "no interaction"}, {"measurement": "effect on Ku thermal stability", "setting": "KuFL", "result": "no significant effect"}, {"measurement": "KD1 stronger with IP6 than in absence of IP6", "setting": "Ku-XLF interaction", "result": 3, "unit": "fold"}, {"measurement": "KD2 stronger with IP6 than in absence of IP6", "setting": "Ku-XLF interaction", "result": 14, "unit": "fold"}, {"measurement": "Kd", "setting": "Ku-XLF interaction; without IP6 1.9 ± 0.8, read-out: KD2, apparent affinity between Ku and XLF", "result": "130 ± 9", "unit": "nM"}, {"measurement": "Kd", "setting": "Ku-XLF interaction; without IP6 3.6 ± 0.6, read-out: KD1, apparent affinity between Ku and XLF", "result": "1200 ± 150", "unit": "nM"}]}
